The values that follow are results of earlier work, collected in patent US20070031570A1, “Hydrothermically processed compositions containing phytosterols” (Archer-Daniels-Midland Company, priority 2002, published 2007).

Like-named read-outs stand apart in the source and are kept apart here. Where only a bound is given, the exact number is not on record here.

Assay in series [1]: not given
The source holds these as a separate data set.

The conditions of series [2]: 2.8 g sitostanol/day given as sitostanol ester in margarine.

Consider `CC[C@H](CC[C@@H](C)[C@H]1CC[C@H]2[C@@H]3CC[C@H]4C[C@@H](O)CC[C@]4(C)[C@H]3CC[C@]12C)C(C)C` [sitostanol], for which, for the setting “subjects with moderate hypercholesterolemia, 3 g/day”, the “effect on serum cholesterol” value is listed as “no effect”. Besides, the reduced serum cholesterol (subjects with severe hypercholesterolemia, 1.5 g/day) is 15%. For the same compound, the reduces cholesterol absorption in series [1] (delivery system which avoids an oil phase ('562 and '776 patents)) was at most 37%.

As to `CC[C@H](CC[C@@H](C)[C@H]1CC[C@H]2[C@@H]3CC=C4C[C@@H](O)CC[C@]4(C)[C@H]3CC[C@]12C)C(C)C` [sitosterol], under “dose-response study, 3-9 g/day of powdered sitosterol”, the “decrease serum cholesterol levels” value was 12%. Also, the reduced serum cholesterol (doses of 5-18 g sitosterol/day) is 16-20%.

Take neomycin: the “effect on cholesterol absorption” value in series [1] (orally-administered) is on record as “reduces cholesterol absorption effectively”.

Turning to sitostanol ester, in series [2], the “reduced LDL cholesterol” value is 16%. Besides, in series [1] (humans, dissolved in dietary fat), the “less effective at reducing cholesterol absorption compared to the unesterified sterol” value is 21%.
